Measured values published in US20260062426A1, “CYCLIN DEPENDENT KINASE DEGRADERS AND METHODS OF USE THEREOF” (Differentiated Therapeutics Inc, priority 2023, published 2026).

Assays:
Type in all cases: cell-based
CDK9 = target: T1, CDK9 (Homo sapiens, UniProt P50750); test: CDK9 HIBIT PQ (protein quantification), degradation; conditions: for Dmax: Max = Maximum; for DC50: PQ = Protein Quantification
T1 construct: host or cells: HEK293
Procedure, shortened: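 HEK293 cells carrying HiBiT-tagged CDK9 were grown in DMEM with 10% FBS and seeded in 384-well plates at 1.6×10^5 cells/well in 50 uL, then incubated overnight at 37° C and 5% CO2. After compound treatment, CDK9 protein was measured with a HiBiT assay. High control was 0.1% DMSO-treated cells and low control was culture medium only. Maximal degradation, Dmax and DC50 were derived from these readings.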

CCNE1 = target: T2, CCNE1 (Homo sapiens, UniProt P24864+P24941); test: CCNE1 HIBIT PQ (protein quantification), degradation; conditions: for CCNE1 HIBIT PQ Max (%): Max = Maximum; for DC50: PQ = Protein Quantification
T2 construct: host or cells: HEK293
Procedure, shortened: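 HEK293 cells carrying HiBiT-tagged CCNE1 were grown in EMEM with 10% FBS and seeded in 384-well plates at 1.6×10⁵ cells/well in 50 uL, then incubated overnight at 37° C and 5% CO₂. Compound treatment lasted 6 hours, and CCNE1 protein was then measured with a HiBiT assay. High control was 0.1% DMSO-treated cells and low control was culture medium only. Maximal degradation and DC50 were derived from these readings.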

CDK2 = target: T3, CDK2 (Homo sapiens, UniProt P24941); test: CDK2 HIBIT PQ (protein quantification), degradation; conditions: for CDK2 HIBIT PQ Max (%): Max = Maximum; for DC50: PQ = Protein Quantification
T3 construct: host or cells: HEK293
Procedure, shortened: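 HEK293 cells bearing HiBiT-tagged CDK2 were cultured in DMEM containing 10% FBS, plated in 384-well plates at 1.6×10^5 cells/well in 50 uL, and kept overnight at 37° C and 5% CO2. Following 6 hours of compound exposure, each well received 20 μL of HiBiT reagent (Nano-Glo HiBiT lytic buffer, lytic substrate, LgBiT protein), and plates were shaken for 20 minutes at room temperature and then read on an EnVision, with 0.1% DMSO as the high control and medium only as the low control. DC50 and maximal degradation were calculated from these readings.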

T1 sequence (P50750 whole entry): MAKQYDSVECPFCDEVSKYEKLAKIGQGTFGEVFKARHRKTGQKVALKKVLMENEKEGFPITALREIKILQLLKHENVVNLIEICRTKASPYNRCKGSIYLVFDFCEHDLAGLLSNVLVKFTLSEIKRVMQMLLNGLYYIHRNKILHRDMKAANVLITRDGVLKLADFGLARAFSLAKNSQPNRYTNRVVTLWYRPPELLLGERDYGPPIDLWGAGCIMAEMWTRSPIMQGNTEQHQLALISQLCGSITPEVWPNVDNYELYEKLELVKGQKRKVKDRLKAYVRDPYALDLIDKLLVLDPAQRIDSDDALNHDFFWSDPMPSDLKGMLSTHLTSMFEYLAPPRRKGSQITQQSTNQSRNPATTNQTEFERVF

Compound | Dmax (CDK9) [%] | DC50 (CDK9) [nM] | CCNE1 HIBIT PQ Max (%) (CCNE1) | DC50 (CCNE1) [nM] | CDK2 HIBIT PQ Max (%) (CDK2) | DC50 (CDK2) [nM]
CC(C)Oc1c(-c2cn[nH]c2)ncn2nc(Nc3ccc(S(=O)(=O)N4CCC5(CCCN5C5CCN(c6ccc7c(c6)n(C)c(=O)n7C6CCC(=O)NC6=O)CC5)C4)cc3F)nc12 (stereo not drawn) [Compound 37] | 51 | 43.7 | 30 |  | 84 | 2.9
CC(C)Oc1c(-c2cn[nH]c2)ncn2nc(Nc3ccc(S(=O)(=O)c4cccc(CC5CC(c6ccc7c(c6)CN(C6CCC(=O)NC6=O)C7=O)C5)c4)cc3F)nc12 (stereo not drawn) [Compound 77, 3-(5-(3-(3-((3-fluoro-4-((8-isopropoxy-7-(1H-pyrazol-4-yl)-[1,2,4]triazolo[1,5-c]pyrimidin-2-yl)amino)phenyl)sulfonyl)benzyl)cyclobutyl)-1-oxoisoindolin-2-yl)piperidine-2,6-dione] | 37 |  | 82 | 34.4 | 95 | 12.4
CC(C)Oc1c(-c2cn[nH]c2)ncn2nc(Nc3ccc(S(=O)(=O)c4cccc(N5CCC6C5CN6c5ccc6c(c5)CN(C5CCC(=O)NC5=O)C6=O)c4)cc3F)nc12 (stereo not drawn) [Compound 34, 3-(5-{2-[3-(3-fluoro-4-{[8-isopropoxy-7-(1H-pyrazol-4-yl)-[1,2,4]triazolo[1,5-c]pyrimidin-2-yl]amino}benzenesulfonyl)phenyl]-2,6-diazabicyclo[3.2.0]heptan-6-yl}-1-oxo-3H-isoindol-2-yl)piperidine-2,6-dione] | 31 |  | 62 | 14.1 | 86 | 5.6
CC(C)Oc1c(-c2cn[nH]c2)ncn2nc(NC3CCN(S(=O)(=O)c4cccc(CN5CCN(c6cc7c(cc6F)C(=O)N(C6CCC(=O)NC6=O)C7)CC5)c4)CC3)nc12 (racemic) [Compound 3] | 102 | 19.4 | 64 | 8.88 | 66 | 3.12
CC(C)Oc1c(-c2cn[nH]c2)ncn2nc(NC3CCN(S(=O)(=O)c4cccc(CN5CC(c6ccc7c(c6)CN(C6CCC(=O)NC6=O)C7=O)C5)c4)CC3)nc12 (racemic) [Compound 4] | 4 |  | 65 | 7.1 | 63 | 4.14
CC(C)Oc1c(-c2cn[nH]c2)ncn2nc(Nc3ccc(S(=O)(=O)c4cccc(CN5C6CC5CN(c5ccc7c(N8CCC(=O)NC8=O)nn(C)c7c5)C6)c4)cc3F)nc12 [Compound 45] | -10 |  | 33 |  | 85 | 4.3
CC(C)Oc1c(-c2cn[nH]c2)ncn2nc(Nc3ccc(S(=O)(=O)N4CCC5(CCN(C6CCN(c7ccc8c(c7)n(C)c(=O)n8C7CCC(=O)NC7=O)CC6)C5)C4)cc3F)nc12 (stereo not drawn) [Compound 36] | 87 | 57.6 | 63 | 22.1 | 89 | 2.9
CC(C)Oc1c(-c2cn[nH]c2)ncn2nc(Nc3ccc(S(=O)(=O)c4cccc(CN5CCN(c6ccc7c(N8CCC(=O)NC8=O)nn(C)c7c6)CC5(C)C)c4)cc3F)nc12 [Compound 47] | 74 | 136 | 72 | 55 | 97 | 6.2
CC(C)Oc1c(-c2cn[nH]c2)ncn2nc(Nc3ccc(S(=O)(=O)c4cccc(C[C@H]5C[C@@H](c6ccc7c(N8CCC(=O)NC8=O)nn(C)c7c6)C5)c4)cc3F)nc12 [Compound 90, rel-1-(6-((1r,3s)-3-(3-((3-fluoro-4-((8-isopropoxy-7-(1H-pyrazol-4-yl)-[1,2,4]triazolo[1,5-c]pyrimidin-2-yl)amino)phenyl)sulfonyl)benzyl)cyclobutyl)-1-methyl-1H-indazol-3-yl)dihydropyrimidine-2,4(1H,3H)-dione] | 14 |  | 48 |  | 91 | 14.3
CC(C)Oc1c(-c2cn[nH]c2)ncn2nc(Nc3ccc(S(=O)(=O)c4cccc(CN5CCC(c6cccc7c(N8CCC(=O)NC8=O)nn(C)c67)CC5)c4)cc3F)nc12 [Compound 26] | 13 |  | 51 | 2.4 | 84 | 3.8
CC(C)Oc1c(-c2cn[nH]c2)ncn2nc(Nc3ccc(S(=O)(=O)c4cccc(C(C)N5CCC(c6ccc7c(N8CCC(=O)NC8=O)nn(C)c7c6)CC5)c4)cc3F)nc12 (single isomer, unassigned) [Compound 100] | 86 | 12.4 | 80 | 14.3 | 90 | 2.9

Stronger by DC50 (CDK2), values ahead:

Dmax (CDK9) [%] | DC50 (CDK9) [nM] | CCNE1 HIBIT PQ Max (%) (CCNE1) | DC50 (CCNE1) [nM] | CDK2 HIBIT PQ Max (%) (CDK2) | DC50 (CDK2) [nM] | Compound
63 | 24 | 55 | 5.76 | 96 | 2.3 | CC(C)Oc1c(-c2cn[nH]c2)ncn2nc(Nc3ccc(S(=O)(=O)c4cccc(CN5CCN(c6ccc7c(N8CCC(=O)NC8=O)nn(C)c7c6)CC5)c4)cc3F)nc12 [Compound 38]
67 | 2.64 | 61 | 0.74 | 87 | 0.2 | CC(C)Oc1c(-c2cn[nH]c2)ncn2nc(Nc3ccc(S(=O)(=O)N(C)CCCN4CCC(c5ccc6c(c5)n(C)c(=O)n6C5CCC(=O)NC5=O)CC4)c4ccoc34)nc12 (racemic) [Compound 53]
20 |  | 38 |  | 56 | 1.3 | CC(C)Oc1c(-c2cn[nH]c2)ncn2nc(Nc3ccc(S(=O)(=O)N4CCCC(CN5CC(c6ccc7c(N8CCC(=O)NC8=O)nn(C)c7c6)C5)C4)cc3F)nc12 (racemic) [Compound 86]
96 | 23.5 | 90 | 15.2 | 97 | 2.8 | CCC1CN(c2ccc3c(N4CCC(=O)NC4=O)nn(C)c3c2)CCN1Cc1cccc(S(=O)(=O)N2CC[C@H](Nc3nc4c(OC(C)C)c(-c5cn[nH]c5)ncn4n3)[C@H](C)C2)c1 (stereo partly drawn) [Compound 50]
74 | 3.38 | 65 | 1.79 | 89 | 0.2 | CC(C)Oc1c(-c2cn[nH]c2)ncn2nc(Nc3ccc(S(=O)(=O)N(C)CCCN4CCN(c5ccc6c(c5)n(C)c(=O)n6C5CCC(=O)NC5=O)C[C@@H]4C(C)C)cc3F)nc12 (stereo partly drawn) [Compound 64]
88 | 7.04 | 71 | 3.57 | 91 | 0.7 | CC(C)Oc1c(-c2cn[nH]c2)ncn2nc(Nc3ccc(S(=O)(=O)N4CC5C4CCN5CC4CCN(c5cccc6c5n(C)c(=O)n6C5CCC(=O)NC5=O)CC4)cc3F)nc12 (stereo not drawn) [Compound 74]
74 | 1.12 | 33 |  | 70 | 0.24 | CC(C)Oc1c(-c2cn[nH]c2)ncn2nc(Nc3ccc(S(=O)(=O)N4CCC(CN5CCC(c6cccc7c6n(C)c(=O)n7C6CCC(=O)NC6=O)CC5)CC4)cc3F)nc12 (racemic) [Compound 14, rac-(R)-3-(4-(1-((1-((3-fluoro-4-((8-isopropoxy-7-(1H-pyrazol-4-yl)-[1,2,4]triazolo[1,5-c]pyrimidin-2-yl)amino)phenyl)sulfonyl)piperidin-4-yl)methyl)piperidin-4-yl)-3-methyl-2-oxo-2,3-dihydro-1H-benzo[d]imidazol-1-yl)piperidine-2,6-dione]
104 | 3.91 | 94 | 3.16 | 92 | 1.67 | CC(C)Oc1c(-c2cn[nH]c2)ncn2nc(N[C@H]3CCN(S(=O)(=O)c4cccc(CN5CCC(c6ccc7c(N8CCC(=O)NC8=O)nn(C)c7c6)CC5)c4)C[C@H]3C)nc12 [Compound 5]
85 | 2.07 | 66 | 1.24 | 92 | < 0.152 | CC(C)Oc1c(-c2cn[nH]c2)ncn2nc(Nc3ccc(S(=O)(=O)N(C)CCCN4CCN(c5ccc6c(c5)n(C)c(=O)n6C5CCC(=O)NC5=O)C[C@H]4C)cc3F)nc12 (stereo partly drawn) [Compound 63]
88 | 5.2 | 89 | 1.55 | 92 | 0.3 | CC(C)Oc1c(-c2cn[nH]c2)ncn2nc(Nc3ccc(S(=O)(=O)N4CCCC(CN5CCC(c6ccc7c(N8CCC(=O)NC8=O)nn(C)c7c6)CC5)C4)cc3F)nc12 (single isomer, unassigned) [Compound 94]
68 | 1.34 | 66 | 0.4 | 86 | 0.1 | Cc1cc(Nc2nc3c(OC(C)C)c(-c4cn[nH]c4)ncn3n2)c(F)cc1S(=O)(=O)N(C)CCCN1CCC(c2ccc3c(c2)n(C)c(=O)n3C2CCC(=O)NC2=O)CC1 (racemic) [Compound 59]
